Read-outs that look alike come from different tables or passages of the source. Where a SMILES comes first, the peptide text is derived from it. The star is where a group is joined. Doxorubicin(3'-N) = COc1cccc2c1C(=O)c1c(O)c3c(c(O)c1C2=O)C[C@@](O)(C(=O)CO)C[C@@H]3O[C@H]1C[C@H](N*)[C@H](O)[C@H](C)O1; Hexanoyl(6-maleimido) = O=C1C=CC(=O)N1CCCCCC(=O)*; X1 = O=C1C=CC(=O)N1CCOCCOCCOCCC(=O)*; X3 = O=C1C=CC(=O)N1CCOCCOCCC(=O)*
Assays:
HT1080 tumors = experiment: HT1080 tumor model in nude mice, 36 umol/kg; format: in vivo; settings: for inhibition in vivo at 36 µmol/kg: Mus musculus, read-out: Tumor inhibition rate Day 28
Protocol: • 1. Animals: nude mice aged 6-8 weeks, all female. • 2. Preparation of tumor models • 1) HT1080 cells were purchased from ATCC and characterized according to the instructions provided. […] Randomization was performed when the tumor size reached 100 mm^3. Treatment was then initiated, and the day of initiation of treatment was counted as Day 1. • 3) Treatment process
According to the clinical application of the corresponding compound, the drug was administered intravenously (IV). The compounds indicated in the table were administered at a low dose and at the same dose of 36 umol/kg.

M2 macrophages = experiment: Cytotoxicity screening, inhibition rate of M2 macrophages at 10 uM; format: cell-based, C57BL/6 mice; settings: 10 uM drug per well, 3 wells, relative to the drug-free group
Protocol: After the cell count in Example 13, the cell concentration was adjusted with the culture medium, and the cells were seeded in a 96-well culture plate at […] of cell suspension per well, wherein the seeding concentration of CD8+ T cells was 100000 cells/well, and the seeding concentration of M2 macrophages was 20000 cells/well. The 96-well plate was incubated overnight for 24 hour at 37° C. in a carbon dioxide (5%) incubator. After 24 hours, 100 ul of cell culture solutions containing different concentrations of drugs were added to the 96-well culture plate. At the same time, a control well (0.1% DMSO) with no drug added and only the corresponding drug solvent and a zero-adjusted well (Blank) with only medium and no cells added was set. Each set was prepared in triplicate and the plates were incubated for 48 hours at 37° C. in a 5% CO2 incubator. After 48 hours, 20 μl MTT (5 mg/ml) was added to each well and the incubation was continued for 4 hours. The culture medium was then gently aspirated, and 150 μl DMSO was added to each well as solvent for dissolution. After dissolution, the absorbance at 490 nm was measured with a microplate reader.
Cytotoxicity screening experiments for some compounds were performed for M2 macrophage inhibition as in embodiment 14.

[1] = tested on: Human hepatoma HepG2 cells; experiment: Human liver cancer HepG2 tumors in nude mice; format: in vivo; settings: for inhibition in vivo at 54 µmol/kg: HepG2, iv, 672 h
Protocol: • 1. Animals: nude mice aged 6-8 weeks, all female. • 2. Preparation of tumor models
Human hepatoma HepG2 cells were purchased from ATCC and identified according to the instructions provided. […] Randomization was performed when the tumor size reached 100 mm^3.
Treatment was then initiated, and the day of initiation of treatment was counted as Day 1. • 3) Treatment process
According to the clinical application of the corresponding compound, the drug was administered intravenously (IV). The compound and the control drug were administered at a dose of 54 umol/kg, and DOX could only be administered at a dose of 18 umol/kg due to toxicity limitations.

[2] = Water solubility test (observation and HPLC); format: physicochemical; settings: thermodynamic from solid
Protocol: The compounds prepared in accordance with the examples of the disclosure and the reference compounds C1, C2, C3 and C4 were lyophilized (−70° C.).

[3] = 36 umol/kg IV once a week for 3 weeks
[4] = Mus musculus, read-out: Tumor inhibition rate (%) Day 28

COc1cccc2c1C(=O)c1c(O)c3c(c(O)c1C2=O)C[C@@](O)(C(=O)CO)C[C@@H]3O[C@H]1C[C@H](N)[C@H](O)[C@H](C)O1 [DOX, doxorubicin, reference compound]
Tumor volume (mm^3) Day 28 (HT1080 tumors; [3]): 754.4 ± 587.4 mm^3 | inhibition in vivo at 36 µmol/kg (HT1080 tumors; HT-1080, 672 h, 36 umol/kg IV once a week for 3 weeks): 56.8% | inhibition at 10 µM (M2 macrophages; Mus musculus, Macrophage): 12.6% | Tumor volume (mm^3) Day 28 ([1]; DOX 18 umol/kg IV (toxicity limitations)): 1683.4 ± 1087.4 mm^3 | inhibition in vivo at 18 µmol/kg ([1]; Mus musculus, HepG2, 672 h, DOX 18 umol/kg IV (toxicity limitations), read-out: Tumor inhibition rate (%) Day 28): 41.9%

COc1cccc2c1C(=O)c1c(O)c3c(c(O)c1C2=O)C[C@@](O)(C(=O)CO)C[C@@H]3O[C@H]1C[C@H](NC(=O)[C@H](CC(C)C)NC(=O)[C@H](CC(N)=O)NC(=O)[C@H](C)NC(=O)[C@H](C)NC(=O)CCOCCOCCOCCN2C(=O)C=CC2=O)[C@H](O)[C@H](C)O1 [QHL-010-DOX] (X1-AANL-{Doxorubicin(3'-N)})
Tumor volume (mm^3) Day 28 (HT1080 tumors; [3]): 0 mm^3 | inhibition in vivo at 36 µmol/kg (HT1080 tumors; HT-1080, iv, 672 h): 100% | growth inhibition of tumor, outcome in words (HT1080 tumors; compared with equimolar dose AANL-DOX): the tumor disappeared | Tumor volume (mm^3) Day 28 ([1]; 54 umol/kg IV once a week for 4 weeks): 0 mm^3 | inhibition in vivo at 54 µmol/kg [1, 4]: 100%

COc1cccc2c1C(=O)c1c(O)c3c(c(O)c1C2=O)C[C@@](O)(C(=O)CO)C[C@@H]3O[C@H]1C[C@H](NC(=O)[C@H](CC(C)C)NC(=O)[C@H](CC(N)=O)NC(=O)[C@H](C)NC(=O)[C@H](C)NC(=O)[C@H](CCC(=O)O)NC(=O)CCOCCOCCN2C(=O)C=CC2=O)[C@H](O)[C@H](C)O1 [QHL-021-DOX] (X3-EAANL-{Doxorubicin(3'-N)})
Inhibition rate of M2 macrophages (M2 macrophages): 68.6%

CC(NC(=O)CCOCCOCCOCCNC(=O)CCN1C(=O)C=CC1=O)C(=O)NC(C)C(=O)NC(CC(N)=O)C(=O)Nc1ccc(COC(=O)N2CC3(C2)C(=O)[O][Pt-2]([NH3+])([NH3+])[O]C3=O)cc1 (centres unmarked) [QHL-089-N-CBP]
Inhibition rate of M2 macrophages (M2 macrophages): 97.4% | solubility [2]: > 10000 µg/mL

CC(NC(=O)CCOCCOCCOCCOCCNC(=O)CCN1C(=O)C=CC1=O)C(=O)NC(C)C(=O)NC(CC(N)=O)C(=O)Nc1ccc(COC(=O)N2CC3(C2)C(=O)[O][Pt-2]([NH3+])([NH3+])[O]C3=O)cc1 (centres unmarked) [QHL-092-N-CBP]
Inhibition rate of M2 macrophages (M2 macrophages): 75.8% | solubility [2]: > 10000 µg/mL

CC(NC(=O)CCOCCOCCOCCOCCOCCOCCNC(=O)CCN1C(=O)C=CC1=O)C(=O)NC(C)C(=O)NC(CC(N)=O)C(=O)Nc1ccc(COC(=O)N2CC3(C2)C(=O)[O][Pt-2]([NH3+])([NH3+])[O]C3=O)cc1 (centres unmarked) [QHL-095-N-CBP]
Inhibition rate of M2 macrophages (M2 macrophages): 68.7% | solubility [2]: > 10000 µg/mL

COc1cccc2c1C(=O)c1c(O)c3c(c(O)c1C2=O)C[C@@](O)(C(=O)CO)C[C@@H]3O[C@H]1C[C@H](NC(=O)[C@H](CC(C)C)NC(=O)[C@H](CC(N)=O)NC(=O)[C@H](C)NC(=O)[C@H](C)NC(=O)[C@H](CCC(=O)O)NC(=O)CCCCCN2C(=O)C=CC2=O)[C@H](O)[C@H](C)O1 [QHL-117-DOX] ({Hexanoyl(6-maleimido)}-EAANL-{Doxorubicin(3'-N)})
inhibition in vivo at 36 µmol/kg (HT1080 tumors; HT-1080, iv, 672 h): 100% | inhibition in vivo at 54 µmol/kg [1, 4]: 100%

CC(NC(=O)CCCCCN1C(=O)C=CC1=O)C(=O)NC(C)C(=O)NC(CC(N)=O)C(=O)Nc1ccc(COC(=O)N2CC3(C2)C(=O)[O][Pt-2]([NH3+])([NH3+])[O]C3=O)cc1 (centres unmarked) [QHL-140-N-CBP]
Inhibition rate of M2 macrophages (M2 macrophages): 89.5% | solubility [2]: > 10000 µg/mL

CC(NC(=O)CCCN1C(=O)C=CC1=O)C(=O)NC(C)C(=O)NC(CC(N)=O)C(=O)Nc1ccc(COC(=O)N2CC3(C2)C(=O)[O][Pt-2]([NH3+])([NH3+])[O]C3=O)cc1 (centres unmarked) [QHL-143-N-CBP]
Inhibition rate of M2 macrophages (M2 macrophages): 78.4% | solubility [2]: > 10000 µg/mL
